Active and inactive are the calls of the source.
Key:
[1] = biological target: T1, G-protein coupled receptor 35 (Homo sapiens, UniProt Q9HC97); assay: SAR analysis of Agonists of the GPR35 Receptor using an Image-Based Assay - Set 4. [Related pubchem assays (depositor defined):AID2013, AID2026]; assay type: functional
Cannabinoid receptor 1 [2] = biological target: T2, Cannabinoid receptor 1 (Homo sapiens, UniProt P21554); assay: SAR analysis of agonists of the Cannabinoid Receptor 1 using an Image-Based Assay - Set 4. [Related pubchem assays (depositor defined):AID2013, AID2026]; assay type: functional
[3] = biological target: T1, G-protein coupled receptor 35; assay: SAR analysis of Antagonists of the GPR35 Receptor using an Image-Based Assay - Set 6. [Related pubchem assays (depositor defined):AID2013, AID2026]; assay type: functional
Cannabinoid receptor 1 [4] = biological target: T2, Cannabinoid receptor 1; assay: SAR analysis of antagonists of the Cannabinoid Receptor 1 using an Image-Based Assay - Set 4. [Related pubchem assays (depositor defined):AID2013, AID2026]; assay type: functional
[5] = biological target: G-protein coupled receptor 55 (Homo sapiens, UniProt Q9Y2T6); assay: SAR Analysis of Selective Antagonists of GPR55 using an Image-Based Assay - Set 4. [Related pubchem assays (depositor defined):AID2013, AID2026]; assay type: functional;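 further: antagonism of response to 5 µM lysophosphatidylinositol agonist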
Cannabinoid receptor 2 [6] = biological target: T3, Cannabinoid receptor 2 (Homo sapiens, UniProt P34972); assay: SAR analysis of antagonists of the Cannabinoid Receptor 2 using an Image-Based Assay - Set 3. [Related pubchem assays (depositor defined):AID2013, AID2026]; assay type: functional
Cannabinoid receptor 2 [7] = biological target: T3, Cannabinoid receptor 2; assay: SAR analysis of agonists of the Cannabinoid Receptor 2 using an Image-Based Assay - Set 3. [Related pubchem assays (depositor defined):AID2013, AID2026]; assay type: functional
Bcl-2-related protein A1 = biological target: T4, Bcl-2-related protein A1 (Mus musculus, UniProt Q07440); assay type: functional;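 further: confirmatory dose–response counterscreen on Bfl-1, used to check hits from a UBC13 polyubiquitin inhibitor campaign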
T4 sequence (Q07440 whole entry): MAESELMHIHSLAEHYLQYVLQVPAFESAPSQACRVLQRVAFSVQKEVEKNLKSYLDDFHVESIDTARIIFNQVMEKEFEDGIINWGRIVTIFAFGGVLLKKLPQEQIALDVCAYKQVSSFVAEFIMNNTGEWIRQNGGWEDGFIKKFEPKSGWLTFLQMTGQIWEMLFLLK

[8] = biological target: T5, Ubiquitin-conjugating enzyme E2 N (Homo sapiens, UniProt P61088); assay type: functional
T5 sequence (P61088 whole entry): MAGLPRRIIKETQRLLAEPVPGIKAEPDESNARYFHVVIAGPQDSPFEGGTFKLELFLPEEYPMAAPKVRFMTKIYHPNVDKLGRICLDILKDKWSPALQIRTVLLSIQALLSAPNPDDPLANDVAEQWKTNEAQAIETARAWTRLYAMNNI

[9] = biological target: T5, Ubiquitin-conjugating enzyme E2 N; assay type: functional; remark: listed apart in the source
[10] = inhibitors of intracellular T. cruzi replication, confirmation, NIH3T3 host cells, beta-gal luminescence (AID 2044); assay type: functional, cell-based;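 further: intracellular parasites grown in NIH/3T3 mouse fibroblasts as host cells; luminescent beta-galactosidase reporter signal from transgenic T. cruzi replicating inside host cells; inhibitors lower the luminescence signal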
[11] = cytotoxicity toward NIH3T3 fibroblasts, dose response, counter-screen, cell-based, ATP luminescence, mouse fibroblasts (AID 2010); assay type: functional;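 further: cells exposed to compound for about 90 hours before reading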
[12] = biological target: T6, Type-1 angiotensin II receptor (Homo sapiens, UniProt P30556); assay: AT1 receptor agonists, dose response, selectivity assay for APJ receptor agonist project, cell-based, uHTS hits (AID 488865); assay type: functional;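 further: beta-arrestin recruitment to AT1 measured by enzyme fragment complementation luminescence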
T6 sequence (P30556 whole entry): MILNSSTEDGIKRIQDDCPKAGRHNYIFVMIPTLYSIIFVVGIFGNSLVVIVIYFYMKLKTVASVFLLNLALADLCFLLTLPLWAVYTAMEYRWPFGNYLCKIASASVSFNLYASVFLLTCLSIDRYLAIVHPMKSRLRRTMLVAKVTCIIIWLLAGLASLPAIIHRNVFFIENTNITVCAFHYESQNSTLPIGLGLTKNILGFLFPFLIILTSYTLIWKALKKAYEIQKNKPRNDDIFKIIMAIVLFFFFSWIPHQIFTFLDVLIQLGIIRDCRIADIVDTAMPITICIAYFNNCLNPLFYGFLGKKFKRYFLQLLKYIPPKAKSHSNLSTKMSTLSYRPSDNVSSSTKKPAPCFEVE

[13] = biological target: T7, Kappa-type opioid receptor (Homo sapiens, UniProt P41145); assay: SAR analysis of small molecule agonists of the kappa opioid receptor via a luminescent beta-arrestin assay - Set 3. [Related pubchem assays (depositor defined):AID1777, AID1785, AID1786, AID1966, AID2133, AID2136, AID2284, AID2500]; assay type: functional
Coagulation factor XII = biological target: T8, Coagulation factor XII (Homo sapiens, UniProt P00748); assay: Factor XIIa Dose Response Confirmation from Single Well HTS. [Related pubchem assays (depositor defined):AID701]; assay type: functional
T8 sequence (P00748 whole entry): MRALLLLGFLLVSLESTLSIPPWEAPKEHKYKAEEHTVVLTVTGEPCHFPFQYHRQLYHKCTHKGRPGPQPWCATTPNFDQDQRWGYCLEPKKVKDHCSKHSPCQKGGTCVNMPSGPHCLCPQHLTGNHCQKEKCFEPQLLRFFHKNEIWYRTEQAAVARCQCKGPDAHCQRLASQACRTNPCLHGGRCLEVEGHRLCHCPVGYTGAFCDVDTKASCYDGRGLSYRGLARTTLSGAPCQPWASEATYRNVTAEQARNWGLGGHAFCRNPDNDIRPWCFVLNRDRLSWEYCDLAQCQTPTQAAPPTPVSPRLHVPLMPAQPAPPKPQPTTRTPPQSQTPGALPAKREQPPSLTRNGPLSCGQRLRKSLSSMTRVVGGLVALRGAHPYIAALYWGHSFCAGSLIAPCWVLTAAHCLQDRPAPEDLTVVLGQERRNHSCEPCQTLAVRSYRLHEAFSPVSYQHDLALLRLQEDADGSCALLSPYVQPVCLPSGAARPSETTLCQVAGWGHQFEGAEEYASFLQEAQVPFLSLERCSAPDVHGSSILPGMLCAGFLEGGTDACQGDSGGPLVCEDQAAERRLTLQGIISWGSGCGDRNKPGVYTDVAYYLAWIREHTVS

Mu-type opioid receptor [14] = biological target: T9, Mu-type opioid receptor (Homo sapiens, UniProt P35372); assay: MOR agonists by imaging, SAR follow-up, image-based (AID 2352); assay type: functional
[15] = biological target: T10, Delta-type opioid receptor (Homo sapiens, UniProt P41143); assay: DOR agonists, SAR follow-up, image-based (AID 2370); assay type: functional
[16] = biological target: T7, Kappa-type opioid receptor; assay: KOR antagonists by imaging, SAR follow-up, image-based (AID 2348); assay type: functional
Mu-type opioid receptor [17] = biological target: T9, Mu-type opioid receptor; assay: MOR antagonists, SAR follow-up, image-based (AID 2420); assay type: functional;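 further: compounds added before stimulation of receptor with agonist DAMGO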
[18] = biological target: T7, Kappa-type opioid receptor; assay: KOR agonist analogs, imaging readout, SAR follow-up, image-based (AID 2359); assay type: functional
[19] = biological target: T10, Delta-type opioid receptor; assay: DOR antagonists, SAR follow-up, image-based (AID 2357); assay type: functional
[20] = biological target: T7, Kappa-type opioid receptor; assay: kappa opioid receptor blockers, cell-based, luminescence, beta-arrestin, SAR follow-up (AID 2285); assay type: functional
[21] = Luminescent dose response cell-based high throughput screening assay for inhibitors of the Janus kinase 2 mutant JAK2V617F. [Related pubchem assays: 1446 (Primary screen.), 1521 (Confirmation assay.), 1486 (Counter screen.)]; assay type: functional
[22] = Intein inhibitors as potential Tuberculosis drugs, a cytotoxicity screen. [Related pubchem assays (depositor defined):AID2221, AID2223, AID434968, AID435010, AID449749, AID449750, AID489010]; assay type: functional
HEK293 = assay: inhibitors of LMP1-driven NF-kB reporter, dose response, cell-based, HEK293, luciferase, cherry-pick (AID 588343); assay type: functional; settings: Homo sapiens
[23] = biological target: T11, Replicative DNA helicase DnaB (Mycobacterium tuberculosis, UniProt P9WMR3); assay: DnaB intein splicing inhibitors, dose response, biochemical, cell-free fluorescence (AID 449749); assay type: functional
T11 sequence (P9WMR3 whole entry): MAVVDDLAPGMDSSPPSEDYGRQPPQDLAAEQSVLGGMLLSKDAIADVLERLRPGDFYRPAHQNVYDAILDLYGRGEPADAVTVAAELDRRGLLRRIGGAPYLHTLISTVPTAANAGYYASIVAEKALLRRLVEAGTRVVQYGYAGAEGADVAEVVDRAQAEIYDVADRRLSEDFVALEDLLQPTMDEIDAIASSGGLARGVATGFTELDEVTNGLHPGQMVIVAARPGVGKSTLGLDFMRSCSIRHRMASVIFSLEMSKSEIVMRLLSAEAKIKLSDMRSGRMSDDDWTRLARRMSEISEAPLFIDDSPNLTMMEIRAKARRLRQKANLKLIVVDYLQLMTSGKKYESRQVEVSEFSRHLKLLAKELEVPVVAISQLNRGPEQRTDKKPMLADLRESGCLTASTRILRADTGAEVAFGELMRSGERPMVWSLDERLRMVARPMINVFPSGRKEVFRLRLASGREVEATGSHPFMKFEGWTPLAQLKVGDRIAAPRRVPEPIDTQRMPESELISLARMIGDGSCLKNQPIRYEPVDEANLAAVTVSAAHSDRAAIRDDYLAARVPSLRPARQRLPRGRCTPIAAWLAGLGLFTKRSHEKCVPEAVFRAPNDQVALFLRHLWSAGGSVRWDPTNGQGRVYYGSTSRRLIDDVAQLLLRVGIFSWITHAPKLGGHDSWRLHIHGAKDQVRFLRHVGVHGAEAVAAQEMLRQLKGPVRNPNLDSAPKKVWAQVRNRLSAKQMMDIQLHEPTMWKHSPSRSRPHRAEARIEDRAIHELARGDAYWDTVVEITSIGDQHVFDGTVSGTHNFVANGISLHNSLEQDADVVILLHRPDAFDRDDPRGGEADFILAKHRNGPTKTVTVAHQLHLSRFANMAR

Protein RecA = biological target: T12, Protein RecA (Mycobacterium tuberculosis, UniProt P9WHJ3); assay: Fluorescence Cell-Free Homogeneous Dose Retest to Identify Inhibitors of RecA-Intein Splicing Activity. [Related pubchem assays (depositor defined):AID2097, AID2223, AID489010, AID492950]; assay type: functional
T12 sequence (P9WHJ3 whole entry): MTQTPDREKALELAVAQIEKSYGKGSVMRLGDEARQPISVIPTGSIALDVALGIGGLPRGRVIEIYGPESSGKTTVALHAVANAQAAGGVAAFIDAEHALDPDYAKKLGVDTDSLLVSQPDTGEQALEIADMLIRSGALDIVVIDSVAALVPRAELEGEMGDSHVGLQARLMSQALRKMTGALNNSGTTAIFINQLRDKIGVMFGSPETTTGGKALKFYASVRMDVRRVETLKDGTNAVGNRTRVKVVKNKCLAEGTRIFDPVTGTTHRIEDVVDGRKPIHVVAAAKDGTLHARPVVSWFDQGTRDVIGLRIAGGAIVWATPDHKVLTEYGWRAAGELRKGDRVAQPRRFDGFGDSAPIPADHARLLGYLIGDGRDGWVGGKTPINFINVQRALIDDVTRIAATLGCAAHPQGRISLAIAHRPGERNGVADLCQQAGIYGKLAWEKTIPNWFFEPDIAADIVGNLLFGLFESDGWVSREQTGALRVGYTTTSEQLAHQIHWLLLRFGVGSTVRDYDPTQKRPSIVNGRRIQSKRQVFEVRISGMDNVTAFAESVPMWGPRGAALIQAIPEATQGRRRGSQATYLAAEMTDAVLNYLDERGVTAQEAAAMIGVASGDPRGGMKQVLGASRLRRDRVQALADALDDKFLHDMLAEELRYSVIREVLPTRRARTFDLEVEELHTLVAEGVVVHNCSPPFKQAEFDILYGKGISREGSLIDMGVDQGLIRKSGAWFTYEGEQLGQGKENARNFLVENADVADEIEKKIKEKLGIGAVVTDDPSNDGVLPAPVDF

[24] = biological target: Beta-2 adrenergic receptor (Homo sapiens, UniProt P07550); assay: beta2AR agonists driving receptor internalization, dose response, cell-based, FAP fluorogen, flow cytometry, cherry pick 1 (AID 588763); assay type: functional
[25] = HEK293T cell cytotoxicity, dose response, cytotoxicity control for HIV Vif inhibitor project, cherry-picks (AID 652208); assay type: functional, cell-based
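Wherever CC50 is given: cells exposed to compound for 72 hours before luminescence readout.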

T7 sequence (P41145 whole entry): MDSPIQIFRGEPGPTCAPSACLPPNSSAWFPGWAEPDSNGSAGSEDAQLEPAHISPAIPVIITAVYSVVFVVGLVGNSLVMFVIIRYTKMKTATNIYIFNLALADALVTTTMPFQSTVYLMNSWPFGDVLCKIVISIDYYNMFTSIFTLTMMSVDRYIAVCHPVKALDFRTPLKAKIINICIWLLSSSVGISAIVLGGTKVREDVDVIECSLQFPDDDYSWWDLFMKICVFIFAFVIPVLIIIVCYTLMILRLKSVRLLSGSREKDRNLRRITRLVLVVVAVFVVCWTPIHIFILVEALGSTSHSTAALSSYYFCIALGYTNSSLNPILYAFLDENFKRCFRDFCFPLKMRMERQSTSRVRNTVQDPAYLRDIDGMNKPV
T10 sequence (P41143 whole entry): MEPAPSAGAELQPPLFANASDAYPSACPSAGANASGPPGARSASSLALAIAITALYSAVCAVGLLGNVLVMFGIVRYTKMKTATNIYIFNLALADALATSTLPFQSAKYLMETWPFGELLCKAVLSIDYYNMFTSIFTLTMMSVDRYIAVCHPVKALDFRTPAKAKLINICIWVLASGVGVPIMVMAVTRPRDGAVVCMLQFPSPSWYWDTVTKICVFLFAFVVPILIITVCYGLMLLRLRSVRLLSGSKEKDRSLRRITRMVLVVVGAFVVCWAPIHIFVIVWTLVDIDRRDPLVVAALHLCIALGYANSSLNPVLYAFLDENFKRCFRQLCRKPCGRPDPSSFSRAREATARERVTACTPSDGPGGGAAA
T1 sequence (Q9HC97 whole entry): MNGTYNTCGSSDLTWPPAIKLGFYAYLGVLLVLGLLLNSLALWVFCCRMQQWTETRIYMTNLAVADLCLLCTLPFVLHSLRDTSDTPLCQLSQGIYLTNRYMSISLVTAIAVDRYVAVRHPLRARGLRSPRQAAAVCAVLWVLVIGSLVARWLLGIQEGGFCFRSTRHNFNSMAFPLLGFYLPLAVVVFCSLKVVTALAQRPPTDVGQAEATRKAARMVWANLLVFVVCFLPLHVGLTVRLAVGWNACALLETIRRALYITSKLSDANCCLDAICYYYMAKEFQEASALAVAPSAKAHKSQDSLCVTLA
T2 sequence (P21554 whole entry): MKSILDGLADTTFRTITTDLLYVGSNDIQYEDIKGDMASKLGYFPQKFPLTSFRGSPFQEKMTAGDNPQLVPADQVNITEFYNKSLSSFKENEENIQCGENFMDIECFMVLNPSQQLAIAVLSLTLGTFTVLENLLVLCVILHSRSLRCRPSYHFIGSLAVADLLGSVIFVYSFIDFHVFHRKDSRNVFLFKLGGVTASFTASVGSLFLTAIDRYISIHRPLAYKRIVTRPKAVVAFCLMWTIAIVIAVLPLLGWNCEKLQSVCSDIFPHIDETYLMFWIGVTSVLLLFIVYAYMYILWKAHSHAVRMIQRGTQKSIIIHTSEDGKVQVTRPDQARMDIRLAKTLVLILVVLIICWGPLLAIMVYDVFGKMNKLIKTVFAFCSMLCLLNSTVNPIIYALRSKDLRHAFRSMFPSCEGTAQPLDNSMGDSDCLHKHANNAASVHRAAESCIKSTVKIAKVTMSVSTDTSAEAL
T3 sequence (P34972 whole entry): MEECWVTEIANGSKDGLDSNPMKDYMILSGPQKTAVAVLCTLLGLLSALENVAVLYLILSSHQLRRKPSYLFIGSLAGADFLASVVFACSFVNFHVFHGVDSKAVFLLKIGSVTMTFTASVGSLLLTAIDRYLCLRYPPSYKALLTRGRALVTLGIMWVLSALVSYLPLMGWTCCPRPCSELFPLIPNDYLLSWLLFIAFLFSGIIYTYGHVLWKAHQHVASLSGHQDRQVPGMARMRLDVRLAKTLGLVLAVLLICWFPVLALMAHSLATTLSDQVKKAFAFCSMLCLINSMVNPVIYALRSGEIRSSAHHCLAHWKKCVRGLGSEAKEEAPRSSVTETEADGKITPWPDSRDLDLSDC
T9 sequence (P35372 whole entry): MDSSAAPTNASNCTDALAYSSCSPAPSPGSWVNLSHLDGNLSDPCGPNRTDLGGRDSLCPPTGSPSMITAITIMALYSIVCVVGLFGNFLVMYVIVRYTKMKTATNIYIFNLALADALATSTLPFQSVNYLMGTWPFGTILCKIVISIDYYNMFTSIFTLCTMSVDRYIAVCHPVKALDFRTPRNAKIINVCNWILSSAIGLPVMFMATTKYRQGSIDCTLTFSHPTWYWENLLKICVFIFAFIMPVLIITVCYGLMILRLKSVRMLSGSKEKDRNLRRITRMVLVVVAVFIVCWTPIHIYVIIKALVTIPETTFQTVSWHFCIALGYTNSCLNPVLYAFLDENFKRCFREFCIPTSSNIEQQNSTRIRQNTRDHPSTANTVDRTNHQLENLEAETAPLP
Chain of Beta-2 adrenergic receptor (P07550 whole entry): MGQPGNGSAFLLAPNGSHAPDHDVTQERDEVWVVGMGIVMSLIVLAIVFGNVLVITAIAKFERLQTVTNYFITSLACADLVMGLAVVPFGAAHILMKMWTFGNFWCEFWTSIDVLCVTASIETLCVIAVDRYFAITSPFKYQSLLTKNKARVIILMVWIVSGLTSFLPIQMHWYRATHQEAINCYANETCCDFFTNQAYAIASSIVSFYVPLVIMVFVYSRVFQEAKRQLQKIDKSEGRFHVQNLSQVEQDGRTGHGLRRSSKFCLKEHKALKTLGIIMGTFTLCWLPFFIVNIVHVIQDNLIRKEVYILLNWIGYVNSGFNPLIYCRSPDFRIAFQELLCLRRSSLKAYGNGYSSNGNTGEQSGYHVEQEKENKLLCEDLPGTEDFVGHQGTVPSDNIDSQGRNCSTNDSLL
Chain of G-protein coupled receptor 55 (Q9Y2T6 whole entry): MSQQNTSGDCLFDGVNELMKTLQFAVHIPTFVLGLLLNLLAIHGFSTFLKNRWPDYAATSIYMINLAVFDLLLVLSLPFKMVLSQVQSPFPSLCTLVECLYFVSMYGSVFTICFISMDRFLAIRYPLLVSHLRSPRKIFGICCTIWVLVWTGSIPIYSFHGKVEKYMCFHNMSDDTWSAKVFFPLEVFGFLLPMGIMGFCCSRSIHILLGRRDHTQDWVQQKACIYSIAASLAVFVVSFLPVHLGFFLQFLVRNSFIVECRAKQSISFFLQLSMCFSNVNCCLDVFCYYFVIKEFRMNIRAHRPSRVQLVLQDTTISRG

Cc1nnc(-c2cccc3ccccc23)c2cn(-c3cccc(Br)c3)nc12
EC50 [1]: > 32 µM (inactive)
EC50 (Cannabinoid receptor 1 [2]): > 32 µM (inactive)
IC50 [3]: 28.2 µM (inactive)
IC50 (Cannabinoid receptor 1 [4]): 0.661 µM (active)
IC50 [5]: 5.27 µM (active)
IC50 (Cannabinoid receptor 2 [6]): 3.87 µM (active)
EC50 (Cannabinoid receptor 2 [7]): > 32 µM (inactive)

COc1ccc(OC)c(/C=C/C(=O)OCC(=O)c2c(N)n(C)c(=O)n(C)c2=O)c1
IC50 (Bcl-2-related protein A1): > 20 µM (inactive)
IC50 [8]: 14 µM (active)
IC50 [9]: > 20 µM (inactive)

Clc1cccc(CN2CCc3c([nH]c4ccccc34)C2)c1
EC50 [10]: 3.73 µM (active)
EC50 [11]: > 60 µM (not active)
EC50 [12]: > 100 µM (inactive)

CCCCN(Cc1cc2cc(Cl)ccc2[nH]c1=O)C(=O)c1ccccn1
EC50 [13]: 1.87 µM (active)

N#Cc1ccc(NC(=O)COC(=O)CNC(=O)C2CCCCC2)cc1
IC50 (Coagulation factor XII): > 50 µM (inactive)

Oc1ccc(C=NNc2ccnc3cc(Cl)ccc23)cc1O
EC50 (Mu-type opioid receptor [14]): > 32 µM (inactive)
EC50 [15]: > 32 µM (inactive)
IC50 [16]: 24.8 µM (inactive)
IC50 (Mu-type opioid receptor [17]): > 32 µM (inactive)
EC50 [18]: > 32 µM (inactive)
IC50 [19]: 18.9 µM (inactive)
IC50 [20]: > 10 µM (inactive)

Clc1ccc(-n2nnnc2Sc2ncnc3sccc23)cc1
IC50 [21]: 0.787 µM (active)
CC50 [22]: 9.7 µM (active)
AC50 (HEK293): 10.7 µM (active)
AC50 [23]: 3.76 µM (active)
EC50 (Protein RecA): 1.03 µM (active)
EC50 [24]: 10.5 µM (inactive)
AC50 [25]: 10.8 µM (active)

Source: ChEMBL document CHEMBL1201862, “PubChem BioAssay data set” (2004)
